Reference: paper PMC3762901, “Cyclic Peptide Inhibitors of the β-Sliding Clamp in Staphylococcus aureus” (PLoS ONE, 2013)
Where “and” joins values, the source holds several entries; their conditions need not be identical. Equal values may be shown once. Read-outs that look alike come from different tables or passages of the source. Ends that are not written are not given here. Peptide text beside a SMILES is read from it.

Key:
[1] = molecular target: DnaN (β), β-sliding clamp of S. aureus (S. aureus) (UniProt P0A024)
[2] = tested on: S. aureus; format: cell-based, Staphylococcus aureus
Experimental: (§1) The antibacterial activities of the purified peptides were determined against Staphylococcus epidermidis and S. aureus. […] We can conclude that some but not all of the identified cyclic peptides are able to penetrate the bacterial membrane to find their intracellular target. […] As expected none of the peptides isolated had any activity towards E. coli, whereas they inhibited growth of B. subtilis, another gram positive bacterium (data not shown).

[3] = tested on: S. epidermidis; format: cell-based, Staphylococcus epidermidis; conditions: for Potency against S. epidermidis compared with S. aureus: cyclic peptides, data not shown
Experimental: as §1

[4] = tested on: S. aureus DnaN-DnaN interaction (β-sliding clamp dimerization); assay: Bacterial two-hybrid (BTH) β-galactosidase assay of DnaN-DnaN interaction; format: cell-based, Staphylococcus aureus; conditions: for Ability to interfere with DnaN dimerization after reduction to 8-mers: cyclic 8-mers with the sequence SXXXXXXG expressed intracellularly, not shown; for Reduction of DnaN-DnaN interaction when produced intracellularly: cyclic peptides expressed in E. coli, Fig. 3
Experimental: The library was screened for peptides able to disrupt DnaN-DnaN interaction of the Staphylococcus replisome by transforming into the R-BTH strain SC01 containing interacting Cya fusion proteins. Cells were plated on plates containing 5-FOA and 1 mM IPTG to induce expression of the cyclic peptides. We readily identified clones where expressed peptides restored cell viability in the presence of 5-FOA (Fig. 3A). To initially assess the activity of the selected peptides we determined their ability to reduce DnaN-DnaN interaction in the original two hybrid system.
Figure 3 Identification of peptides that interfere with DnaN-DnaN interaction. […] After screening of our SICLOPPS library, growth was restored in 7 clones.A. (B) The cyclic peptides identified in (A) were expressed in the original bacterial two-hybrid strain (BTH101) containing T18:DnaN and DnaN:T25 fusion plasmids and the level of β-galactosidase activity was determined as described in Materials and Methods.
Bacterial two-hybrid assay was performed as described previously. Derivatives of plasmids pUT18 and p25N encoding replication proteins were constructed by cloning PCR-amplified DNA fragments in frame with the T25 and T18 fragments of cya. T18 and T25 fusions were transformed into BTH101, and plated on plates containing 40 μg/ml of 5-bromo-4-chloro-indolyl-β-D-galactoside (X-gal) and relevant antibiotics. […] For β-galactosidase assays, cells were grown exponentially at 30°C in LB supplemented with 0.5 mM IPTG, and β-galactosidase activities were measured as described by.

[5] = tested on: S. aureus strain 8325-4; assay: Growth (colony forming units) of S. aureus with or without DnaN overproduction after peptide addition; format: cell-based, Staphylococcus aureus; conditions: 40 μg/ml peptide, LB, 37°C, repeated 4 times; for Bacterial growth of uninduced cultures after peptide addition: 8 hours duration, colony forming units; for Bacterial growth of cultures overproducing DnaN after peptide addition: dnaN induced with 10 μM CdCl2 3 hours before (pSC141)
Experimental: To ensure that the antibacterial effects of peptides III-5 and III-6 were the result of direct interaction of these peptides with the β-clamp, we decided to overproduce DnaN in S. aureus cells. The dnaN gene was cloned under control of the cadmium induclible pCAD promoter of plasmid pCN51 [37]. Cells were grown exponentially at 37°C in LB medium and 3 hours prior to peptide addition expression of dnaN was induced by addition of 10 μM CdCl2. At time T = 0 peptides III-5 or III-6 were added to a final concentration of 40 μg/ml which is very close to the MIC value for both of these peptides (Fig. 4).
Figure 4 Overproduction of DnaN in S. aureus relieves the growth inhibition imposed by peptides III-5 and […]. S. aureus strain 8325-4 containing either the vector plasmid pCN51 (black filled squares) or plasmid pSC141 (grey triangles) was grown exponentially at 37°C in LB medium supplemented with 10 μg/ml erythromycin. CdCl2 was added to all cultures to a final concentration of 10 μM to induce overproduction of DnaN from pSC141 three hours prior to peptide addition. At T = 0, 40 μg/ml of peptide III-5 (middle panel) or III-6 (bottom panel) was added to the cultures. The number of colony forming units was determined by plating. The experiment were repeated 4 times with similar results.

[6] = tested on: DNA replication in S. aureus strain 8325-4; assay: DNA synthesis, incorporation of 3H-thymidine; format: cell-based, Staphylococcus aureus; conditions: 50 μg/ml peptide; LB, 37°C; TCA precipitate, scintillation counting; repeated 3 times
Experimental: (§2) In order to test the direct effects of peptides III-5 and III-6 on DNA replication in S. aureus, strain 8325-4 was grown exponentially at 37°C in LB medium. Incorporation of ^3H-thymidine into the DNA was determined at various times after addition of 50 μg/ml of peptides III-5 or III-6. […] Protein synthesis, determined as incorporation of ^35S-methionine, was unaffected by peptide addition for at least 180 minutes (Fig. S1) which is well after the onset of DNA synthesis inhibition. Therefore the DNA replication inhibition is not a consequence of a more general effect on protein synthesis, and we conclude that peptide III-5 and III-6 inhibits replication by interfering with the dnaN encoded β-clamp.
Figure 5 Peptides III-5 and III-6 Inhibit DNA replication. […] Samples were taken at the indicated time-points and incorporation of ^3H into DNA was measured by liquid scintillation counting of TCA precipitated material. […]
For measuring DNA and protein synthesis, S. aureus strain 8325−4 was grown exponentially at 37°C in LB supplemented with 0.2 ml ^3H-thymidine (20 Ci/mmol,1 mCi/ml; Perkin Elmer Inc.) and uridine (50 μg/ml). […] The incorporation of ^3H into DNA was determined using a 1450 MicroBeta TriLux Microplate and Scintillation and Luminiscence counter (Perkin Elmer Inc.).

[7] = tested on: Protein synthesis in S. aureus strain 8325-4; assay: Protein synthesis, incorporation of 35S-methionine; format: cell-based, Staphylococcus aureus; conditions: 50 μg/ml peptide; for at least 180 minutes; repeated 3 times
Experimental: as §2
S. aureus strain 8325-4 was grown exponentially in LB supplemented with ^35S-methionine. At T=0 peptide III-5 (grey triangles) or III-6 (green squares) was added to a final concentration of 50 μg/ml. Addition of buffer (red filled circles) served as control. Samples were taken at the indicated time-points and incorporation of ^35S into protein was measured by liquid scintillation counting of TCA precipitated material. The experiment was repeated 3 times with similar result. The result from one experiment is shown.

[8] = tested on: S. aureus strain 8325-4; assay: Fluorescence microscopy with DAPI staining (cell size, DNA content); format: cell-based, Staphylococcus aureus; conditions: 50 μg/ml; LB, 37°C
From the text: The effect of peptides III-5 and III-6 on cell size and DNA content was visualized by fluorescence microscopy. […] A likely explanation is that peptide III-6, through its inhibitory effect on DNA synthesis, also results in an inability for cells to divide. Similar observations have been made for E. coli where failure to complete chromosome replication result in division inhibition and filamentation.
Figure 7 Peptide III-6 affect S. aureus cell size, morphology and DNA content. S. aureus strain 8325−4 was grown exponentially at 37°C in LB medium. […] Cells were stained with DAPI prior to fluorescence microscopy (Materials and Methods).
S. aureus strain 8325-4 or B. subtilis strain 168 was grown exponentially at 37°C in LB. […] The cells were stained with the live/dead stain according to the manufacturer. Phase-contrast and fluorescence images were acquired using a Leica DM5000B microscope with a×100 HCX PL APO NA 1.4 objective and a Leica DFC350FX cooled charge-coupled device camera controlled through FW4000 software (version 1.2.1; Leica Microsystems).

[9] = tested on: S. aureus or S. epidermidis; format: cell-based
From the text: In agreement with this none of these peptides were particularly hydrophobic or cationic (Table 4). […] This could be tested by construction of deletion mutants lacking one or more of these permeases. We synthesized and tested linear counterparts of the active peptides III-5, III-6 and III-7. […] Increased antibacterial activity of peptides due to circularization has previously been described.

Chain of UniProt P0A024 (P0A024 whole entry): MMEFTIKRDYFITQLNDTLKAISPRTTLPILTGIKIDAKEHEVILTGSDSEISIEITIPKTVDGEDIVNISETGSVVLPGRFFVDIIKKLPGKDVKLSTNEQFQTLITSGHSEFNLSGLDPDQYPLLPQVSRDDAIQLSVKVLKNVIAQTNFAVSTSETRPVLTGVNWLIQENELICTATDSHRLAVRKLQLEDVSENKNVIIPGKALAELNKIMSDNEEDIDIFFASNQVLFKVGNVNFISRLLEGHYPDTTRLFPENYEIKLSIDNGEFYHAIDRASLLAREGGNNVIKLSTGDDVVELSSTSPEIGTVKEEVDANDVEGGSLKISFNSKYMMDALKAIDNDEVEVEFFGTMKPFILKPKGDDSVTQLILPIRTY

purified cyclic peptide III-6 (CRSQGLFK)
MIC for cyclic peptide, determined for S. aureus [1]: 50 μg/ml and 54 μM

purified cyclic peptide III-5 (CRVFLCGC)
MIC for cyclic peptide, determined for S. aureus [1]: 50 μg/ml and 57 μM

CC(C)C[C@H](NC(=O)[C@H](Cc1ccccc1)NC(=O)[C@@H](NC(=O)[C@H](CCCNC(=N)N)NC(=O)[C@@H](N)CS)C(C)C)C(=O)N[C@@H](CS)C(=O)NCC(=O)N[C@@H](CS)C(=O)O [linear III-5] (H-CRVFLCGC-OH)
MIC for linear peptide [2]: > 560 µg/mL

CC(C)C[C@@H]1NC(=O)CNC(=O)[C@H](CCC(N)=O)NC(=O)[C@H](CO)NC(=O)[C@H](CCCNC(=N)N)NC(=O)[C@H](CS)NC(=O)[C@H](CCCCN)NC(=O)[C@H](Cc2ccccc2)NC1=O [III-6] (cyclo(CRSQGLFK))
Potency against S. epidermidis compared with S. aureus [3]: somewhat more potent against S. epidermidis
Ability to interfere with DnaN dimerization after reduction to 8-mers [4]: retaining their ability to interfere with DnaN dimerization
Reduction of DnaN-DnaN interaction when produced intracellularly [4]: efficient in reducing DnaN-DnaN interaction
Bacterial growth of uninduced cultures after peptide addition [5]: cessation of bacterial growth
Bacterial growth of cultures overproducing DnaN after peptide addition [5]: continued growth
Accumulation of DNA (3H-thymidine incorporation) [6]: severely reduced accumulation of DNA
Protein synthesis (35S-methionine incorporation) [7]: unaffected
Cell size [8]: increased cell size
DNA distribution between cells (DAPI staining) [8]: uneven DNA distribution between cells
MIC values (range given for the three active cyclic peptides) [9]: 20−50 μg/ml

CC(C)C[C@H](NC(=O)[C@@H](NC(=O)[C@H](Cc1ccccc1)NC(=O)[C@H](CC(C)C)NC(=O)[C@H](Cc1c[nH]c2ccccc12)NC(=O)[C@H](CS)NC(=O)[C@H](CCCNC(=N)N)NC(=O)[C@@H](N)CS)C(C)C)C(=O)O [linear IV-N8] (H-CRCWLFVL-OH)
MIC for linear peptide [3]: >1124 ^4 (>1.08) μg/ml

CC(C)C[C@@H]1NC(=O)[C@H](Cc2ccccc2)NC(=O)[C@H](C(C)C)NC(=O)[C@H](CCCNC(=N)N)NC(=O)[C@H](CS)NC(=O)[C@H](CS)NC(=O)CNC(=O)[C@H](CS)NC1=O [III-5] (cyclo(CRVFLCGC))
MIC for cyclic peptide ([2]; cyclic 8-mer CRXXXXXX, determined for S. aureus, highest concentration tested 100 μg/ml): 50 µg/mL
MIC for cyclic peptide (molar) ([2]; cyclic 8-mer CRXXXXXX, determined for S. aureus, value in brackets): 57 µM
Potency against S. epidermidis compared with S. aureus [3]: somewhat more potent against S. epidermidis
Ability to interfere with DnaN dimerization after reduction to 8-mers [4]: retaining their ability to interfere with DnaN dimerization
Reduction of DnaN-DnaN interaction when produced intracellularly [4]: efficient in reducing DnaN-DnaN interaction
Bacterial growth of uninduced cultures after peptide addition [5]: cessation of bacterial growth
Bacterial growth of cultures overproducing DnaN after peptide addition [5]: continued growth
Accumulation of DNA (3H-thymidine incorporation) [6]: severely reduced accumulation of DNA
Protein synthesis (35S-methionine incorporation) [7]: unaffected
MIC values (range given for the three active cyclic peptides) ([9]; cyclic peptides, summary over S. aureus (III-5, III-6) and S. epidermidis (III-7)): 20−50 μg/ml

CC(C)[C@@H]1NC(=O)[C@H](Cc2c[nH]c3ccccc23)NC(=O)[C@H](C(C)C)NC(=O)[C@H](Cc2c[nH]cn2)NC(=O)CNC(=O)[C@H](CCCNC(=N)N)NC(=O)[C@H](CS)NC(=O)[C@H](CC(=O)O)NC1=O [III-7] (cyclo(CRGHVWVD))
Ability to interfere with DnaN dimerization after reduction to 8-mers [4]: retaining their ability to interfere with DnaN dimerization
Reduction of DnaN-DnaN interaction when produced intracellularly [4]: efficient in reducing DnaN-DnaN interaction
MIC values (range given for the three active cyclic peptides) [9]: 20−50 μg/ml

CRSQGLFK [linear III-6]
MIC for linear peptide [2]: > 560 µg/mL

cyclo(CRCWLFVL) (cysteine pairing not given here) [IV-N8, cyclic 8-mer CRCWLFVL synthesized via FMOC SPPS]
MIC for cyclic peptide ([3]; cyclic 8-mer CRXXXXXX, determined for S. epidermidis, highest concentration tested 100 μg/ml): > 100 µg/mL
Ability to interfere with DnaN dimerization after reduction to 8-mers [4]: retaining their ability to interfere with DnaN dimerization

CC(C)C[C@@H]1NC(=O)[C@H](CO)NC(=O)[C@H](CCC(=O)O)NC(=O)[C@H](Cc2ccccc2)NC(=O)[C@H]([C@@H](C)O)NC(=O)[C@H](CO)NC(=O)[C@H](CCCNC(=N)N)NC(=O)[C@H](CS)NC1=O [III-8] (cyclo(CRSTFESL))
MIC for cyclic peptide [2]: > 100 µg/mL
Reduction of DnaN-DnaN interaction when produced intracellularly [4]: efficient in reducing DnaN-DnaN interaction

CRGHVWVD [linear III-7]
MIC for linear peptide [2]: > 560 µg/mL
